Assay [1] concerns K562. Kind of assay: Induction of human K562 cell differentiation at 2.5 uM after 72 hrs by trypan blue exclusion assay in presence of guanosine. The format is functional, cell-based.
In assay [2] the test system is K562. Kind of assay: Antiproliferative activity against human K562 cells at 2.5 uM. The class given is functional, cell-based.
For assay [3], the target named is Histone deacetylase (Homo sapiens) (UniProt Q13547+O15379+Q9UBN7+Q92769+Q9UQL6+Q8WUI4+Q9BY41+Q96DB2+P56524+Q9UKV0+Q969S8). Kind of assay: Inhibition of HDAC in human K562 cells using Boc-Lys[Ac]-AMC as substrate at 10 uM incubated for 10 mins prior to substrate addition measured after 80 mins by fluorescence assay. The class given is cell-based.
Assay [4] has as its system K562. Kind of assay: Antiproliferative activity against human K562 cells at 2.5 uM in presence of guanosine. The class given is functional, cell-based.
Assay [5] relates to K562. Kind of assay: Cytotoxicity against human K562 cells. The format is functional, cell-based.
Assay [6] has as its target Inosine-5'-monophosphate dehydrogenase 2 (Homo sapiens, UniProt P12268). Kind of assay: Inhibition of human IMPDH2.
The target in assay [7] is Inosine-5'-monophosphate dehydrogenase 1 (Homo sapiens, UniProt P20839). Kind of assay: Inhibition of human IMPDH1.
Inosine-5'-monophosphate dehydrogenase 1, sequence (P20839 whole entry): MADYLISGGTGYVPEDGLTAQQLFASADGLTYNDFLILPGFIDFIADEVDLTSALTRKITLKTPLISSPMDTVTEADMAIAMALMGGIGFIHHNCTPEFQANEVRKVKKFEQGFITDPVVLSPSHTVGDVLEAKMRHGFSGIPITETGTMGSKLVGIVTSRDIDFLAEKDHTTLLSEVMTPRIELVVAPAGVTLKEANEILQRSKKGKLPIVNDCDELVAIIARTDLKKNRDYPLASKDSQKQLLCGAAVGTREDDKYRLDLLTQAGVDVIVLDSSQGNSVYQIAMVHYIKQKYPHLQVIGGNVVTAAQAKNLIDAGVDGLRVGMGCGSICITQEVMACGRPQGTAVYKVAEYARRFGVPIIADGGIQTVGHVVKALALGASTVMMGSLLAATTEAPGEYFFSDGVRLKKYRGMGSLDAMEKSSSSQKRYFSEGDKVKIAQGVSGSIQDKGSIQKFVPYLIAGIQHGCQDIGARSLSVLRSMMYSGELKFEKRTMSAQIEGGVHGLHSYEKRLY
Assay [8] concerns K562. Kind of assay: Antiproliferative activity against human K562 cells at 1 mM in presence of guanosine. The format is functional, cell-based.
For another assay, the species on record is Homo sapiens. Kind of assay: Selectivity index, ratio of IC50 for human IMPDH1 to IC50 for human IMPDH2.
In assay [9] the test system is K562. Kind of assay: Induction of human K562 cell differentiation at 1 to 30 uM after 72 hrs by trypan blue exclusion assay in presence of guanosine. The format is functional, cell-based.
The subject of assay [10] is K562. Kind of assay: Induction of human K562 cell differentiation at 30 uM after 72 hrs by trypan blue exclusion assay. The class given is functional, cell-based.
For assay [11], the system named is K562. Kind of assay: Antiproliferative activity against human K562 cells at 1 uM in presence of guanosine. The format is functional, cell-based.
Assay [12] has as its system K562. Kind of assay: Antiproliferative activity against human K562 cells at 1 uM. The format is functional, cell-based.
The test system of assay [13] is K562. Kind of assay: Antiproliferative activity against human K562 cells at 5 uM. The class given is functional, cell-based.
Assay [14] relates to K562. Kind of assay: Induction of human K562 cell differentiation at 5 uM after 72 hrs by trypan blue exclusion assay in presence of guanosine. The class given is functional, cell-based.
Assay [15] deals with K562. Kind of assay: Antiproliferative activity against human K562 cells at 5 uM in presence of guanosine. The class given is functional, cell-based.
Assay [16] concerns K562. Kind of assay: Induction of human K562 cell differentiation at 1 uM after 72 hrs by trypan blue exclusion assay in presence of guanosine. The format is functional, cell-based.

This is an account of results in ChEMBL document CHEMBL2417359, “Discovery of N-(2,3,5-triazoyl)mycophenolic amide and mycophenolic epoxyketone as novel inhibitors of human IMPDH” (Bioorg Med Chem Lett, 2013).

Molecules are shown by their SMILES. “And” between values parts separate entries of the source, which are not always exact repeats. Equal entries are not always repeated. The source made the active and inactive calls. No cut-off for these calls is given here.

`COc1c(C)c2c(c(O)c1C/C=C(\C)CCC(=O)NO)C(=O)OC2`: the result in the assay on K562 [1] and in the assay with K562 [4] was inactive. Moreover, the outcome in the assay with K562 [2] was Active. For the same compound, the inhibition (commonly the relative decrease from the control value, in per cent) in assay [3] came to 76%.

With `COc1c(C)c2c(c(O)c1C/C=C(\C)CCC(=O)Nn1cnnc1)C(=O)OC2`, in the assay on K562 [5], inhibition was half-maximal at 31 µM (IC50).

Consider `COc1c(C)c2c(c(O)c1C/C=C(\C)CCC(=O)[C@@H]1CO1)C(=O)OC2` [listing 1 of 3 here], for which the concentration for half-maximal inhibition (IC50) (in general, the midpoint of a concentration-inhibition curve) in assay [6] turned out to be 0.387 µM; in assay [7] it was 0.68 µM; in the assay on K562 [5], 2.3 µM.

As for `COc1c(C)c2c(c(O)c1C/C=C(\C)CCCS)C(=O)OC2`, in the assay on K562 [5], the half-inhibitory concentration (IC50) stood at 74 µM.

Turning to `COc1c(C)c2c(c(O)c1C/C=C(\C)CCC(=O)[C@@H]1CO1)C(=O)OC2` [listing 2 of 3 here], the IC50 in [6] worked out at 0.33 µM; in [7], 0.558 µM; in the assay on K562 [5], 2.9 µM.

`COc1c(C)c2c(c(O)c1C/C=C(\C)CCCSC(C)=O)C(=O)OC2` returned an IC50 with K562 [5] of 26 µM.

As for `CCCC(=O)[O-].[Na+]`, the outcome in the assay on K562 [8] was Active.

Take `COc1c(C)c2c(c(O)c1C/C=C(\C)CCC(=O)Nc1ncn[nH]1)C(=O)OC2`: the Ratio IC50 in the assay filed under Homo sapiens is 1.1. Also, the 50% inhibitory concentration (IC50) in [6] was determined as 0.098 µM; in [7], 0.105 µM; in the assay with K562 [5], 0.48 µM. The result in the assay on K562 [9] and in the assay with K562 [11] was inactive. The outcome in the assay with K562 [10] and in the assay with K562 [12] was Active.

As to `COc1c(C)c2c(c(O)c1C/C=C(\C)CCC(=O)[C@@H]1CO1)C(=O)OC2` [listing 3 of 3 here], the inhibition in assay [3] was 15% and 19%. Besides, the Ratio IC50 in the assay filed under Homo sapiens was 1.8 and 1.7. In addition, the outcome in the assay with K562 [13] was Active. The result in the assay with K562 [14] and with K562 [15] was inactive.

`COc1c(C)c2c(c(O)c1C/C=C(\C)CCC(=O)O)C(=O)OC2`: the inhibition in assay [3] is 3%. For the same compound, the result in the assay with K562 [11] and in the assay with K562 [16] was inactive. Further, the outcome in the assay with K562 [12] was Active.

Take `COc1c(C)c2c(c(O)c1C/C=C(\C)CCC(=O)Nc1nccs1)C(=O)OC2`: the concentration for half-maximal inhibition (IC50) in the assay with K562 [5] came to 22 µM.

Regarding `COc1c(C)c2c(c(O)c1C/C=C(\C)CCC(=O)Nc1nnn[nH]1)C(=O)OC2`, the IC50 with K562 [5] amounted to 34 µM.

`COc1c(C)c2c(c(O)c1C/C=C(\C)CCC(=O)Nc1nncs1)C(=O)OC2` yielded a half-inhibitory concentration (IC50) with K562 [5] of 27 µM.

Regarding `COc1c(C)c2c(c(O)c1C/C=C(\C)CCC(=O)Nc1ccccn1)C(=O)OC2`, in the assay with K562 [5], the midpoint of inhibition, the IC50, lay at 26 µM.
